Source: PMC5518105, “Identification and characterization of the antiplasmodial activity of Hsp90 inhibitors” (Malaria Journal, 2017)
pIC50, pKd: −log10 of the molar value. “Also recorded” adds a separate entry of the source. Where two headings read alike, the source gives them in different places.

How the values were obtained:
human Hsp90α = molecular target: T1, human Hsp90α (Homo sapiens, UniProt P07900); test: Biacore SPR analysis, full-length human Hsp90α; assay type: binding; details: for kon: read-out: ka
T1 construct: Full-length human recombinant HSP90α was purchased; purchased Cayman Chemicals, MI
Protocol: (§1) Full-length human recombinant HSP90α was purchased (Cayman Chemicals, MI), while the malaria recombinant parasite proteins were generated according to the following protocol. […] Growth at 37 °C continued until the OD600 reached ~1.0, whereupon the temperature was lowered to 18 °C and protein expression was induced by the addition of 1 mM isopropyl β-D-thiogalactopyranoside (IPTG). Overnight post-induction cells were collected by centrifugation and resuspended in binding buffer [50 mM Hepes pH 7.5, 500 mM NaCl, 1 mM benzamidine, and 1 mM phenylmethanesulfonyl fluoride (PMSF)]. The cells were lysed by adding chemical lysis buffer (2% CHAPS, 0.1 mg/mL lysozyme and 0.5 U/mL benzonase), the lysate was clarified by centrifugation. The supernatant was loaded on to a nickel-nitrilotriacetic acid column pre-equilibrated with binding buffer (50 mM Hepes pH 7.5, 500 mM NaCl). Following a wash step with binding buffer containing 5 mM imidazole, the bound protein was eluted with elution buffer (50 mM Hepes pH 7.5, 500 mM NaCl, 250 mM imidazole). The eluate was then loaded on to a 16/60 Superdex 200 size exclusion column pre-equilibrated with 50 mM Hepes pH 7.5 and 500 mM NaCl. Target protein-containing fractions were pooled and concentrated using centrifugal filter units (Amicon). The final protein products and samples for different steps in the purification procedures were evaluated in SDS-Page gels.
SPR measurements were performed on Biacore T200 instrument (GE Healthcare) at 25 °C. Purified P. falciparum Hsp90 and PfGRP94 N-terminal domain, and full-length human Hsp90α were immobilized on a CM5 sensorchip using NHS/EDC coupling following the manufacturer protocol to a level of <10,000 RUs, a reference surfaces without immobilized proteins served as a control for nonspecific binding and refractive index changes. […] The running buffer was 10 mM HEPES, pH 7.4, 150 mM NaCl, 0.005% P20, 1% DMSO and 2 mM MgCl2. Buffer alone injections were used as blanks. The sensor surface was regenerated between injections with a short injection of a buffer 10 mM HEPES, pH 7.4, 150 mM NaCl, 0.005% P20 and 3 mM EDTA. The Biacore responses recorded during the 30 s of the injection were used to estimate the association constant (k on) and the 300 s after the injection were used to estimate the dissociation constant (k off). All kinetic constants were estimated using double subtracted sensorgrams using BiaEvaluation Software (GE Healthcare), the kinetic constants were used to calculate the dissociation constant (K d).

P. falciparum Grp94 = P. falciparum Grp94 (Plasmodium falciparum, UniProt Q8I0V4); test: biochemical; assay type: binding
Chain of P. falciparum Grp94 (Q8I0V4 entry or part of it): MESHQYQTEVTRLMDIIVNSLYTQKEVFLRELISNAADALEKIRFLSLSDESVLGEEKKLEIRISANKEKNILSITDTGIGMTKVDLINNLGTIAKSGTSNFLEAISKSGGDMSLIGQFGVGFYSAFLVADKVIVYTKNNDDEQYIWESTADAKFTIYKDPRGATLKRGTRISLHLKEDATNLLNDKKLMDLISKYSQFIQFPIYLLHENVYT
Protocol: as §1
(§2) SPR measurements were performed on Biacore T200 instrument (GE Healthcare) at 25 °C. Purified P. falciparum Hsp90 and PfGRP94 N-terminal domain, and full-length human Hsp90α were immobilized on a CM5 sensorchip using NHS/EDC coupling following the manufacturer protocol to a level of <10,000 RUs, a reference surfaces without immobilized proteins served as a control for nonspecific binding and refractive index changes. Seven different concentrations of the ligands between 0.4 nM and 1 mM, were injected in triplicate over the sensor chip at 30 μL/min in random order. The running buffer was 10 mM HEPES, pH 7.4, 150 mM NaCl, 0.005% P20, 1% DMSO and 2 mM MgCl2. Buffer alone injections were used as blanks. The sensor surface was regenerated between injections with a short injection of a buffer 10 mM HEPES, pH 7.4, 150 mM NaCl, 0.005% P20 and 3 mM EDTA. The Biacore responses recorded during the 30 s of the injection were used to estimate the association constant (k on) and the 300 s after the injection were used to estimate the dissociation constant (k off). All kinetic constants were estimated using double subtracted sensorgrams using BiaEvaluation Software (GE Healthcare), the kinetic constants were used to calculate the dissociation constant (K d).

P. falciparum Hsp90 = P. falciparum Hsp90 (Plasmodium falciparum, UniProt Q8IC05); test: biochemical; assay type: binding
Chain of P. falciparum Hsp90 (Q8IC05 entry or part of it): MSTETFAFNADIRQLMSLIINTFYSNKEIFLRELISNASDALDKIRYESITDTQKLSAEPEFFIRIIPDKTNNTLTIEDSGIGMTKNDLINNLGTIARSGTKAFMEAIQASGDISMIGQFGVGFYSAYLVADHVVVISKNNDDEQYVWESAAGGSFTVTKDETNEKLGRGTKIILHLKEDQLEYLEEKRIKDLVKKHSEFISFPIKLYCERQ
Protocol: as §1, §2

[1] = system: P. falciparum chloroquine resistant W2; test: Growth inhibition assay (SYBR Green I), W2; details: W2, 72 h
Protocol: (§5) A 50% suspension of non-infected O positive erythrocytes was added every 2 days to adjust haematocrit to 5%. Parasite cultures were maintained at 37 °C in 5% O2 and 5% CO2 atmosphere with daily changes of culture media.
(§6) A synchronized P. falciparum culture, with over 80% ring forms, was used in the growth inhibition assay. […] A 190 μL aliquot of parasite culture was dispensed per well to microplates that were pre-dispensed with the compounds at various dilutions. […] Dilutions of Hsp90 inhibitors and DHA were prepared in water with a final concentration of DMSO below 0.05% (v/v).
(§7) The microplates were incubated at 37 °C in a controlled atmosphere (5% O2, 5% CO2 Nitrogen balanced) for 72 h. After incubation, the plates were subject to a freeze–thaw cycle (−80 °C) and the parasite growth was quantified by the SYBR Green I method as previously described [33]. Briefly, 100 µL of homogenized parasite culture was transferred into 96-well black plates. […] The plates were incubated at room temperature in darkness for 1 h.
(§8) Growth inhibition experiments were conducted at least three times per compound (biological replicates, n ≥ 3). The IC50 differences for each inhibitor between the two P. falciparum strains were compared with a t test.

[2] = system: P. falciparum chloroquine sensitive 3D7; test: Growth inhibition assay (SYBR Green I), 3D7; details: 3D7, 72 h
Protocol: as §5, §6, §7, §8

P. falciparum 3D7 [3] = test: Recrudescence assay, 3D7; assay type: cell-based, Plasmodium falciparum
Protocol: (§3) The assay is a modification of the previously reported bulk recrudescence assay. […] […] After drug exposure, the medium containing the drug was removed and the cultures were washed twice with compound-free media, and resuspended in RPMI to adjust haematocrit to 5%. The medium was changed every day and red blood cells were added every 2 days to adjust the haematocrit. The cultures were monitored daily until they reached 10% parasitaemia, which represented the end point of the experiment. Culture parasitaemia was determined by scoring >2000 erythrocytes in Giemsa-stained thin blood films as parasitized or not. The median number of days to reach this level of parasitaemia was reported for all the experiments. All experiments were conducted in triplicate; each replica was conducted on different days. The differences in the recovery times between control cultures to those exposed to Hsp90 inhibitors were analysed using the non-parametric statistic Kruskal–Wallis test. If the overall test was significant then Dunn’s multiple comparison tests were used to identify significant differences among pair comparisons. The same statistical analysis was applied when comparing P. falciparum cultures exposed to DHA alone versus DHA in combination with Hsp90 inhibitors. […] The statistical analyses were performed with the software Prism v6 (GraphPad Software, San Diego, CA).

P. falciparum W2 [4] = test: Recrudescence assay, W2; assay type: cell-based, Plasmodium falciparum
Protocol: as §3

[5] = system: Primary normal human lung fibroblasts (NHLFs); test: Drug cytotoxicity assay (MTT); details: 24 h
Protocol: Primary normal human lung fibroblasts (NHLFs) were seeded on 24-well plates and cultured in FGM-2 media (LONZA, Basel, Switzerland) until they reached 80% confluency. […] Briefly, 50 µL of MTT dye was added into the media and the cells were returned to the incubator for 3 h. Then 500 µL of solubilization solution was added to dissolve the MTT formazan crystals. […] The drug cytotoxicity assay was performed in triplicate.

P. falciparum 3D7 [6] = test: Parasite stage specific effect, 3D7; assay type: cell-based, Plasmodium falciparum; details: 3D7, 24 h; 17-DMAG 1.2 µM, NVP-AUY922 0.72 µM
Protocol: (§4) Synchronized P. falciparum cultures were used to determine the susceptibility of different parasite stages to Hsp90 inhibitors. Three synchronized cultures per strain, with a majority of the parasites in the ring (0–26 h post red blood cell infection), trophozoite (26–38 h) or schizont (38–48 h) stages respectively (Fig. 3). […] The cultures were exposed to one concentration of the Hsp90 inhibitor for 24 h. […] For each three exposed the cultures and the control for both strains 3D7 and W2, the parasitaemia and the developmental stage of the parasites were recorded. Before and after drug exposure, Giemsa-stained blood smears were scored by microscopy examination counting 100 infected erythrocytes per culture, and the proportion of each developmental stage was calculated.

P. falciparum W2 [7] = test: Parasite stage specific effect, W2; assay type: cell-based, Plasmodium falciparum; details: W2, 24 h; 17-DMAG 1.2 µM, NVP-AUY922 0.72 µM
Protocol: as §4

[8] = set-up: method as in PMID 18020435; details: mice, 50 mg/kg; read-out: Cmax in plasma; cited from earlier work
[9] = SPR, 25 °C, calculated from kinetic constants, read-out: Kd
[10] = Plasmodium falciparum, synchronized ring culture
[11] = Kd, SPR, 25 °C, calculated from kinetic constants

SMILES	ka (P. falciparum Grp94; SPR, 25 °C) [M⁻¹ s⁻¹]	kd (P. falciparum Grp94; SPR, 25 °C) [s⁻¹]	ka (P. falciparum Hsp90; SPR, 25 °C)	kd (P. falciparum Hsp90; SPR, 25 °C) [s⁻¹]	IC90 ([1]; Plasmodium falciparum) [µM]	pIC50 [1, 10]	IC90 ([2]; Plasmodium falciparum) [µM]	pIC50 [2, 10]	pKd (P. falciparum Grp94)	further results
Nc1ncnc2c1ncn2[C@@H]1O[C@H](COP(=O)(O)OP(=O)(O)O)[C@@H](O)[C@H]1O [ADP]	1360	0.003	107 M⁻¹ s⁻¹	0.002	–	–	–	–	–	ka (human Hsp90α; SPR, 25 °C): 109 M⁻¹ s⁻¹; kd (human Hsp90α; SPR, 25 °C): 0.006 s⁻¹; pKd (human Hsp90α; SPR, 25 °C, calculated from kinetic constants): 4.20; pKd (P. falciparum Grp94; [9]): 5.66; pKd (P. falciparum Hsp90; [9]): 4.69
CC(C)c1cc(C(=O)N2Cc3ccc(CN4CCN(C)CC4)cc3C2)c(O)cc1O [AT13387, (2,4-dihydroxy-5-isopropylphenyl)-[5-(4-methylpiperazin-1-ylmethyl)-1,3-dihydroisoindol-2-yl]methanone]	216	0.643	212 M⁻¹ s⁻¹	0.009	5.37	6.28	4.57	6.18	2.53	kd (human Hsp90α; SPR, 25 °C): 0.348 s⁻¹; kon (human Hsp90α): 570 M⁻¹ s⁻¹; pKd (P. falciparum Hsp90; [11]): 4.33
CCN(CC)CCCC(C)Nc1ccnc2cc(Cl)ccc12 (stereo not shown) [CQ, Chloroquine]	–	–	–	–	0.39	–	0.0672	–	–	pIC50 ([1]; Plasmodium falciparum): 6.89; pIC50 ([2]; Plasmodium falciparum): 7.42
C[C@H]1[C@@H](O)O[C@@H]2O[C@@]3(C)CC[C@H]4[C@H](C)CC[C@@H]1[C@@]24OO3 [DHA, dihydroartemisinin]	–	–	–	–	0.0018	9.30	0.0052	8.92	–	days to recover to 10% parasitaemia (median) (P. falciparum 3D7 [3]; 3D7, 100 nM for 48 h): 12 days; days to recover to 10% parasitaemia (median) (P. falciparum W2 [4]; W2, 100 nM for 48 h): 13 days
COC1=C2C[C@@H](C)C[C@H](OC)[C@H](O)[C@@H](C)/C=C(\C)[C@H](OC(N)=O)[C@@H](OC)/C=C\C=C(/C)C(=O)NC(=CC1=O)C2=O [Geldanamycin, geldanamycin]	–	–	–	–	2.63	–	1.7	–	–	pIC50 ([1]; Plasmodium falciparum): 6.70; pIC50 ([2]; Plasmodium falciparum): 6.67
CCNC(=O)c1noc(-c2cc(C(C)C)c(O)cc2O)c1-c1ccc(CN2CCOCC2)cc1 [NVP-AUY922]	–	–	–	–	0.46	~7.12	0.646	~7.12	8.05	pIC50 ([1]; synchronized ring culture): 7.12; pIC50 ([2]; synchronized ring culture): 7.12; pIC50 ([5]; Homo sapiens, Fibroblast, read-out: IC50 against human cells): < 5.00; growth inhibition for the human cells ([5]; NHLF, 0.5 to 10 µM): ≤ 25%; recovery time in combination with DHA vs DHA alone (P. falciparum 3D7 [3]; 3D7, 48 h, two concentrations plus DHA 100 nM): increase in the time required to reach 10% parasitaemia; delay of culture recovery vs untreated control (cytocidal activity) (P. falciparum 3D7 [3]; 3D7, 48 h exposure, 17-AAG 1.5-6 µM, 17-DMAG 0.3-1.2 µM, NVP-AUY922 0.18-0.72 µM): (0.36 and 0.72 µM) significantly delayed the parasite recovery; also recorded: strong cytotoxic activities; effect against all parasite stages (ring, trophozoite, schizont) (P. falciparum 3D7 [6]): effective against all parasite stages; effect against all parasite stages (ring, trophozoite, schizont) (P. falciparum W2 [7]): effective against all parasite stages; recovery time in combination with DHA vs DHA alone (P. falciparum W2 [4]; W2, 48 h, two concentrations plus DHA 100 nM): only significant in the case of P. falciparum W2; delay of culture recovery vs untreated control (cytocidal activity) (P. falciparum W2 [4]; W2, 48 h exposure, 17-AAG 1.5-6 µM, 17-DMAG 0.3-1.2 µM, NVP-AUY922 0.18-0.72 µM): (0.36 and 0.72 µM) significantly delayed the parasite recovery; also recorded: strong cytotoxic activities; Cmax [8]: 35 µM; ka (P. falciparum Grp94): 438,000 1/Ms; kd (P. falciparum Grp94): 0.004 s⁻¹; ka (P. falciparum Hsp90): 107,000 1/Ms; kd (P. falciparum Hsp90): 0.001 s⁻¹; pKd (P. falciparum Hsp90; Kd): 7.89; pKd (P. falciparum Hsp90; Kd against the parasite chaperone): 7.88
CC(C)NCCCn1c(Sc2cc3c(cc2I)OCO3)nc2c(N)ncnc21 [PUH71]	–	–	–	–	> 10	–	–	–	–	pIC50 ([1]; Plasmodium falciparum): 5.35; pIC50 ([2]; Plasmodium falciparum): 5.41; kd (human Hsp90α): 0.007 s⁻¹; ka (P. falciparum Hsp90): 356,000 1/Ms; kd (P. falciparum Hsp90): 0.005 s⁻¹
CC(C)NCCCn1c(Sc2cc(Cl)cc(Cl)c2)nc2c(N)ncnc21 [PUWS13]	149	0.843	598,000 1/Ms	0.041	9.06	5.41	–	5.15	2.25	kd (human Hsp90α; SPR, 25 °C): 0.022 s⁻¹; kon (human Hsp90α): 811 M⁻¹ s⁻¹; pKd (P. falciparum Hsp90; [11]): 7.16
CC1(C)CC(=O)c2c(C(F)(F)F)nn(-c3ccc(C(N)=O)c(N[C@H]4CC[C@H](O)CC4)c3)c2C1 [SNX-2112]	4720	0.0006	20,300 1/Ms	0.003	> 10	5.77	–	–	–	–
CC1(C)CC(=O)c2c(C(F)(F)F)nn(-c3ccc(C(N)=O)c(N[C@H]4CC[C@H](OC(=O)CN)CC4)c3)c2C1 [SNX-5422]	–	–	–	–	6.65	5.70	4.32	5.67	–	–
CC(C)c1cc(-c2n[nH]c(=O)n2-c2ccc3c(ccn3C)c2)c(O)cc1O [STA-9090]	1.7e+06	0.003	1.27 M⁻¹ s⁻¹	1.5e-07	> 10	5.89	4.11	5.90	9.00	pKd (P. falciparum Hsp90; Kd): 6.92
